Assay results from PubChem BioAssay (NCI).
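In this assay, cells in 96-well plates receive the compound at five concentrations for 48 hours. Endpoints are linearly interpolated between the surrounding concentrations. GI50 = concentration required for 50% inhibition of growth. TGI is the concentration that stops growth completely.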

How the values were obtained:
Assay in all cases: DTP human tumour cell line panel, 48 h
[1] = tested on: HL-60(TB) leukemia
[2] = tested on: M14 melanoma
[3] = tested on: RPMI-8226 leukemia
[4] = tested on: RXF 393 renal
[5] = tested on: KM12 colon
[6] = tested on: SF-539 CNS
[7] = tested on: OVCAR-4 ovarian
[8] = tested on: NCI-H23 lung
[9] = tested on: CCRF-CEM leukemia
[10] = tested on: MDA-MB-231 breast
[11] = tested on: NCI-H460 lung
[12] = tested on: HCT-116 colon
[13] = tested on: EKVX NSCLC
[14] = tested on: HCC-2998 colon
[15] = tested on: IGROV1 ovarian
[16] = tested on: HS 578T breast
[17] = tested on: HOP-62 NSCLC
[18] = tested on: SK-OV-3 ovarian
[19] = tested on: A498 renal
[20] = tested on: SF-295 CNS
[21] = tested on: MDA-MB-435
[22] = tested on: NCI-H226 lung
[23] = tested on: OVCAR-8 ovarian
[24] = tested on: UO-31 renal
[25] = tested on: COLO 205 colon
[26] = tested on: SW-620 colon
[27] = tested on: ACHN renal
[28] = tested on: MALME-3M melanoma
[29] = tested on: DU-145 prostate
[30] = tested on: SNB-19 CNS
[31] = tested on: U251 CNS
[32] = tested on: SK-MEL-2 melanoma
[33] = tested on: SR leukemia
[34] = tested on: PC-3 prostate
[35] = tested on: UACC-257 melanoma
[36] = tested on: T-47D breast
[37] = tested on: NCI/ADR-RES ovarian
[38] = tested on: TK-10 renal
[39] = tested on: SN12C renal
[40] = tested on: LOX IMVI melanoma
[41] = tested on: HCT-15 colon
[42] = tested on: SK-MEL-5 melanoma
[43] = tested on: K-562 leukemia
[44] = tested on: MOLT-4 leukemia
[45] = tested on: HOP-92 NSCLC
[46] = tested on: OVCAR-3 ovarian
[47] = tested on: CAKI-1 renal
[48] = tested on: UACC-62 melanoma
[49] = tested on: OVCAR-5 ovarian
[50] = tested on: SF-268 CNS
[51] = tested on: MCF7 breast
[52] = tested on: HT29 colon
[53] = tested on: NCI-H522 lung
[54] = tested on: 786-0 renal
[55] = tested on: SK-MEL-28 melanoma
[56] = tested on: A549 NSCLC
[57] = tested on: SNB-75 CNS
[58] = tested on: BT-549 breast

Work on `CN1CCN(Cc2ccc(NC(=O)c3cncc(C#Cc4cnc5ccc(OC6CCOCC6)nn45)c3)cc2C(F)(F)F)CC1` yielded a GI50 [1] of 57.5 nM, a TGI [1] of 285 nM and a GI50 [2] of 49.3 nM. For the same compound, the TGI [2] was 154 nM, the GI50 [3] was 183 nM and the TGI [3] was 973 nM. It also gave a GI50 [4] of 96.5 nM, a TGI [4] of 288 nM and a GI50 [5] of 5 nM. For the same compound, the TGI [5] was 305 nM, the GI50 [6] was 39.3 nM and the TGI [6] was 526 nM. It also gave a GI50 [7] of 151 nM, a TGI [7] of 1190 nM and a GI50 [8] of 120 nM. For the same compound, the TGI [8] was 474 nM, the GI50 [9] was 11.3 nM and the TGI [9] was 3130 nM. It also gave a GI50 [10] of 38 nM, a TGI [10] of 176 nM and a GI50 [11] of 67.4 nM. It also gave a TGI [11] of 618 nM, a GI50 [12] of 37.5 nM and a TGI [12] of 228 nM. For the same compound, the GI50 [13] was 173 nM, the TGI [13] was 805 nM and the GI50 [14] was 149 nM. It also gave a TGI [14] of 457 nM, a GI50 [15] of 56.2 nM and a TGI [15] of 503 nM. For the same compound, the GI50 [16] was 105 nM, the TGI [16] was 648 nM and the GI50 [17] was 165 nM. For the same compound, the TGI [17] was 953 nM, the GI50 [18] was 316 nM and the TGI [18] was 1160 nM. For the same compound, the GI50 [19] was 246 nM, the TGI [19] was 797 nM and the GI50 [20] was 145 nM. It also gave a TGI [20] of 1560 nM, a GI50 [21] of 61.7 nM and a TGI [21] of 603 nM. For the same compound, the GI50 [22] was 24.1 nM, the TGI [22] was 762 nM and the GI50 [23] was 132 nM. For the same compound, the TGI [23] was 604 nM, the GI50 [24] was 158 nM and the TGI [24] was 729 nM. It also gave a GI50 [25] of 95.3 nM, a TGI [25] of 302 nM and a GI50 [26] of 61.3 nM. For the same compound, the TGI [26] was 332 nM, the GI50 [27] was 105 nM and the TGI [27] was 1750 nM. It also gave a GI50 [28] of 69.4 nM, a TGI [28] of 382 nM and a GI50 [29] of 141 nM. The TGI [29] was 769 nM, the GI50 [30] was 221 nM and the TGI [30] was 1640 nM. It also gave a GI50 [31] of 142 nM, a TGI [31] of 527 nM and a GI50 [32] of 90.6 nM. It also gave a TGI [32] of 199 nM, a GI50 [33] of 37.8 nM and a TGI [33] of 332 nM. The GI50 [34] was 144 nM, the TGI [34] was 1120 nM and the GI50 [35] was 215 nM. It also gave a TGI [35] of 780 nM, a GI50 [36] of 543 nM and a TGI [36] of 2420 nM. For the same compound, the GI50 [37] was 348 nM, the TGI [37] was 1770 nM and the GI50 [38] was 90.7 nM. It also gave a TGI [38] of 227 nM, a GI50 [39] of 52.9 nM and a TGI [39] of 408 nM. For the same compound, the GI50 [40] was 71.9 nM, the TGI [40] was 420 nM and the GI50 [41] was 95.3 nM. For the same compound, the TGI [41] was 324 nM, the GI50 [42] was 596 nM and the TGI [42] was 1350 nM. For the same compound, the GI50 [43] was 5 nM, the TGI [43] was 702 nM and the GI50 [44] was 36.4 nM. The TGI [44] was 638 nM, the GI50 [45] was 9.44 nM and the TGI [45] was 65.7 nM. It also gave a GI50 [46] of 123 nM, a TGI [46] of 998 nM and a GI50 [47] of 43.7 nM. For the same compound, the TGI [47] was 252 nM, the GI50 [48] was 127 nM and the TGI [48] was 732 nM. For the same compound, the GI50 [49] was 257 nM, the TGI [49] was 1580 nM and the GI50 [50] was 142 nM. It also gave a TGI [50] of 687 nM, a GI50 [51] of 37.6 nM and a TGI [51] of 415 nM. For the same compound, the GI50 [52] was 73.2 nM, the TGI [52] was 317 nM and the GI50 [53] was 88 nM. For the same compound, the TGI [53] was 182 nM, the GI50 [54] was 244 nM and the TGI [54] was 890 nM. For the same compound, the GI50 [55] was 256 nM, the TGI [55] was 1050 nM and the GI50 [56] was 90.9 nM. The TGI [56] was 562 nM, the GI50 [57] was 17.8 nM and the TGI [57] was 209 nM. For the same compound, the GI50 [58] was 537 nM and the TGI [58] was 1510 nM.
